Experimental data: patent US10392371B2, “Compounds useful as modulators of TRPM8” (Senomyx, Inc., priority 2015, dated 2019)

Tests used:
[1] = Sensory evaluation by quantitative descriptive evaluation technique (ten trained panelists, 15-point linescale); assay type: in vivo, human
Experimental: Compounds 102-105 and Comparative Compound 1 were evaluated using a quantitative descriptive evaluation technique. Ten panelists participated in the study. These panelists previously underwent extensive training in the use of standardized vocabulary to describe the appearance, aroma, flavor, and texture of a variety of products. Data collection was conducted over a period of seven days, with panelists evaluating two samples on each day of testing. Two evaluations were obtained from each panelist for each compound yielding a total of 20 evaluations per compound. During the data collection, the panelists were give a list of attributes and instructed to indicate the intensity of each attribute by indicating the intensity on a 15-point linescale. The intensity was evaluated for the following time periods: in-mouth, after expectoration, and 30 seconds, 1, 2, 5, 10, 15, 30, 45, and 60 minutes into the aftertaste period.
Compounds 102, 103, and 105 were prepared as 5 μM solutions and Compound 104 and Comparative Compound 1 were prepared in 3 μM solutions. 15 mL aliqouts of the test solutions were administered to Panelists in 1 oz. plastic cups coded with a random 3-digit code. The Panelists refrained from brushing their teeth, eating, and drinking one hour before each evaluation. Mean intensities were calculated based on the Panelists responses for each sensory characteristic. The sensory characteristics evaluated were bitter, icy cool in mouth, numbing, cooling breathe in, total burning, alcohol burning, pepperine/capsaicin, tingling, and total trigeminal impact. For each sensory characteristic, the scale of the intensity was designed to cover a range encompassing the universe of products having the indicated sensory characteristic.
After mean intensities for each attribute were calculated, statistical significance for each mean intensity was calculated using analysis of variance (ANOVA) followed by Duncan's multiple comparison test at an alpha level of 5%. […] In the results provided herein, the Duncan's levels are reported as Levels A, B, and C.
Panelists were asked to assess the intensity of both capsaicin-like burning and Alcohol-like Burning sensations for Compounds 102 and 103 and Comparative Compound 1. Capsaicin-like burning is the sensation of warming or burning in the mouth, reminiscent of black pepper or hot sauce while alcohol-like burning is the sensation of warming or burning in the mouth, reminiscent of an alcohol burn. The combination of the intensity of these sensations was used to assess the total burning for the tested compounds. The average total burning after expectoration to 60 minutes was lower for both 5 μM Compound 102 and 5 μM Compound 103 as compared to 3 μM Comparative Compound 1.
The total intensity of trigeminal nerve feeling factors on the soft tissues of the mouth, including numbing, cooling (without breathing in), irritation, warming, burning, and tingling were determined for Compounds 102 and 103 and Comparative Compound 1. The average total trigeminal impact after expectoration to 60 minutes was lower for both 5 μM Compound 102 and 5 μM Compound 103 as compared to 3 μM Comparative Compound 1.
Icy cool in mouth is the sensation of coolness of the mouth, perceived with the mouth closed, not related to the temperature of the sample. Panelists were asked to assess the sensation of icy cool in mouth for Compound 104 and Compound 105 from the time immediately after expectoration of the sample through 60 minutes after expectoration. The average Icy Cool after expectoration to 60 minutes was higher for both 5 μM Compound 105 and 3 μM Compound 104 as compared to 3 μM Comparative Compound 1.
Cooling Breath In is the sensation of coolness of the mouth, when inhaling through the mouth, not related to the temperature of the sample. […]

[2] = Cool Line Scale Test (sensory study, cooling intensity vs 45 μM WS-3); assay type: in vivo, human; conditions: for Sensory Results (cooling intensity relative to 45 μM WS-3): 5 μM compound vs 45 μM WS-3, Low Sodium Buffer pH ~7.1, 0.1% ethanol, 15 point line scale; for lingering effect: sensory study
Experimental: A typical sensory study is described below followed by Table 5 summarizing sensory results of Compounds 101-105.
All samples made with Low Sodium Buffer (LSB) pH ˜7.1 and contain 0.1% ethanol.
Compounds are rated on a 15 point line scale where 45 μM WS-3 (N-Ethyl-p-menthane-3-carboxamide) is ranked as a 5 in cool intensity. In most cases, the compounds are tested to determine at what concentration the cooling intensity is equivalent to 45 μM WS-3. In each test, the panelist is presented with a 0 μM control sample, a 45 μM WS-3 control sample and the experimental compound sample and asked to rate the cooling intensity of each sample.

hTRPM8 = target: T1, hTRPM8 (Homo sapiens, UniProt Q7Z2W7); assay: hTRPM8 agonist assay in mammalian cell line stably expressing hTRPM8; assay type: cell-based; conditions: EC50 of compound compared to that of WS-3, reported as a ratio
T1 construct: expressed in transfected cells
T1 sequence (Q7Z2W7 whole entry): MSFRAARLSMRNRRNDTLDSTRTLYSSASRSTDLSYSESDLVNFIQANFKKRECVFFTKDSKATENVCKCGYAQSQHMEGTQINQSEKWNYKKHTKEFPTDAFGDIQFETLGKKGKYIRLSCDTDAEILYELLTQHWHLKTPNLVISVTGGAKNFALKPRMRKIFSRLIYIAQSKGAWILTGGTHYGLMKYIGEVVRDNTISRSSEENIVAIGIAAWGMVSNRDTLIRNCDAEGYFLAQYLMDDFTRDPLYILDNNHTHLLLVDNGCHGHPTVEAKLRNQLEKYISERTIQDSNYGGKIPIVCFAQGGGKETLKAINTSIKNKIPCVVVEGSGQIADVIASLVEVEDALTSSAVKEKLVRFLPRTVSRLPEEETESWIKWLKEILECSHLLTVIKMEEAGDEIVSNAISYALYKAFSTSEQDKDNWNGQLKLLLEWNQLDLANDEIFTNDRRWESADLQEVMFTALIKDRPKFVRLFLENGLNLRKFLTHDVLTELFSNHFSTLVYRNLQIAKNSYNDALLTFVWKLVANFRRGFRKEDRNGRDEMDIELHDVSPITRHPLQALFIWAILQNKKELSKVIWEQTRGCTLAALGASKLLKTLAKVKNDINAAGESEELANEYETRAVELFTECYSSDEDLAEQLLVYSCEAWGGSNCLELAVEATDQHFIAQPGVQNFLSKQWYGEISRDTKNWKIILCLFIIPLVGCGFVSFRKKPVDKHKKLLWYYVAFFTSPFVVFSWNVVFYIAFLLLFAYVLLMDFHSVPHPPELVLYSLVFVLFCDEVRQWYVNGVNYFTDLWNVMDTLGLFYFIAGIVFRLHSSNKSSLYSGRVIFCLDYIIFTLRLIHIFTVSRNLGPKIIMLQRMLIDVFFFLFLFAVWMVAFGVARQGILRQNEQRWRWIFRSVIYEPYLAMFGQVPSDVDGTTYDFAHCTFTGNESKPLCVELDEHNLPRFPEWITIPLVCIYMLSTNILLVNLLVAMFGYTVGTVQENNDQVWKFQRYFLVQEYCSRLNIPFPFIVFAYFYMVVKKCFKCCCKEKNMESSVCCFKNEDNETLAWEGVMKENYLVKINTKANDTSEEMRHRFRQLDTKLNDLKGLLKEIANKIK
Experimental: A mammalian cell line derivative which stably expresses hTRPM8 was used in biological assays in association with testing the present compounds with cool-tasting or -feeling properties (Servant et al. US 2007/0259354 A1 and references cited therein). Typical compound concentrations tested were 100 μM, 30 μM, 10 μM, 3.3 μM, 1.1 μM, 0.37 μM, 0.12 μM, 0.04 μM, 0.01 μM and more dilutions for very potent compounds. The present compounds have shown strong activity as agonists of hTRPM8. […] For the sake of comparison, the EC50 of Comparative Compound 1, which was previously disclosed in U.S. 2013/0324557 A1 and has the structure

Row | Compound | Average Numbing (after expectoration to 60 minutes) ([1]; 5 μM solution) | Average Tingling (after expectoration to 60 minutes) ([1]; 5 μM solution) | Average Total Burning (after expectoration to 60 minutes) ([1]; 5 μM solution) | Average Total Trigeminal Impact (after expectoration to 60 minutes) ([1]; 5 μM solution) | Average Bitterness at 2 Minutes After Expectoration (Bitterness Rating) ([1]; 5 μM solution) | Sensory Results (cooling intensity relative to 45 μM WS-3) [2] | lingering effect [2] | EC50 WS-3 Ratio (hTRPM8) | Average Cooling Breath In (after expectoration to 60 minutes) ([1]; 3 μM solution) | Average Icy Cool In Mouth (after expectoration to 60 minutes) ([1]; 3 μM solution) | Average Icy Cool In Mouth and Immediately After Expectoration ([1]; 3 μM solution) | Average Bitterness at 2 Minutes After Expectoration (Bitterness Rating) ([1]; 3 μM solution) | other results
1 | COc1ccc(OCC(=O)N(Cc2cccs2)c2cc[nH]n2)cc1 [Compound 103, 2-(4-methoxyphenoxy)-N-(1H-pyrazol-3-yl)-N-(thiophen-2-ylmethyl)acetamide] | 1.3 | 0.6 | 0.9 | 2.3 | 0.90 | equivalent to the cooling | unexpected lingering effect | 1050.9 | – | – | – | – | –
2 | O=C(COc1ccc(F)cc1)N(Cc1cccs1)c1cc[nH]n1 [Compound 102, 2-(4-flourophenoxy)-N-(1H-pyrazol-5-yl)-N-(thiophen-2-ylmethyl)acetamide] | 1.4 | 0.6 | 0.9 | 2.4 | 0.86 | – | – | 495.4 | – | – | – | – | –
3 | Cc1cccc(OCC(=O)N(Cc2cccs2)c2cc[nH]n2)c1 [Compound 101, N-(1H-pyrazol-3-yl)-N-(thiophen-2-ylmethyl)-2-(m-tolyloxy)acetamide] | – | – | – | – | – | – | – | 696.3 | – | – | – | – | –
4 | Cc1ccc(OCC(=O)N(Cc2cccs2)c2ccn[nH]2)cc1 [Comparative Compound 1, reference compound] | – | – | – | – | – | – | – | 28648 | 2.5 | 2.1 | 1.8 | 1.10 | Average Numbing (after expectoration to 60 minutes) ([1]; 3 μM solution): 1.5; Average Tingling (after expectoration to 60 minutes) ([1]; 3 μM solution): 0.7; Average Total Burning (after expectoration to 60 minutes) ([1]; 3 μM solution): 1.1; Average Total Trigeminal Impact (after expectoration to 60 minutes) ([1]; 3 μM solution): 2.8
5 | CCc1ccc(OCC(=O)N(Cc2cccs2)c2cc[nH]n2)cc1 [Compound 104, 2-(4-ethylphenoxy)-N-(1H-pyrazol-3-yl)-N-(thiophen-2-ylmethyl)acetamide] | – | – | – | – | – | significantly more cooling | unexpected lingering effect | 1189444 | 2.7 | 2.3 | 2.0 | 0.77 | –
6 | Cc1ccc(OCC(=O)N(Cc2cccs2)c2cc[nH]n2)cc1C [Compound 105, 2-(3,4-dimethylphenoxy)-N-(1H-pyrazol-3-yl)-N-(thiophen-2-ylmethyl)acetamide] | – | – | – | – | 0.82 | – | unexpected lingering effect | 12169.3 | – | – | – | – | Average Cooling Breath In (after expectoration to 60 minutes) ([1]; 5 μM solution): 2.7; Average Icy Cool In Mouth (after expectoration to 60 minutes) ([1]; 5 μM solution): 2.3; Average Icy Cool In Mouth and Immediately After Expectoration ([1]; 5 μM solution): 1.9
